From PubChem BioAssay (NCI)
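48-hour exposure; five concentrations; linearly interpolated endpoints. GI50 is the concentration that inhibits growth by half. The concentration for full growth arrest is given as TGI.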

How the values were obtained:
Assay in all cases: NCI-60 cell line screen, 48 h
SF-539 CNS = system: SF-539 CNS
K-562 leukemia = system: K-562 leukemia
CCRF-CEM leukemia = system: CCRF-CEM leukemia
HT29 colon = system: HT29 colon
U251 CNS = system: U251 CNS
A549 NSCLC = system: A549 NSCLC
SNB-75 CNS = system: SNB-75 CNS
MDA-MB-231 breast = system: MDA-MB-231 breast
HCT-116 colon = system: HCT-116 colon
DU-145 prostate = system: DU-145 prostate
SF-295 CNS = system: SF-295 CNS
NCI-H460 lung = system: NCI-H460 lung
MDA-MB-435 = system: MDA-MB-435
UACC-62 melanoma = system: UACC-62 melanoma
EKVX NSCLC = system: EKVX NSCLC
M14 melanoma = system: M14 melanoma
OVCAR-5 ovarian = system: OVCAR-5 ovarian
ACHN renal = system: ACHN renal
NCI/ADR-RES ovarian = system: NCI/ADR-RES ovarian
T-47D breast = system: T-47D breast
SNB-19 CNS = system: SNB-19 CNS
KM12 colon = system: KM12 colon
MOLT-4 leukemia = system: MOLT-4 leukemia
SK-MEL-28 melanoma = system: SK-MEL-28 melanoma
LOX IMVI melanoma = system: LOX IMVI melanoma
SK-MEL-2 melanoma = system: SK-MEL-2 melanoma
PC-3 prostate = system: PC-3 prostate
A498 renal = system: A498 renal
SK-OV-3 ovarian = system: SK-OV-3 ovarian
MALME-3M melanoma = system: MALME-3M melanoma
UO-31 renal = system: UO-31 renal
RXF 393 renal = system: RXF 393 renal
OVCAR-8 ovarian = system: OVCAR-8 ovarian
SN12C renal = system: SN12C renal
TK-10 renal = system: TK-10 renal
OVCAR-4 ovarian = system: OVCAR-4 ovarian
COLO 205 colon = system: COLO 205 colon
HCC-2998 colon = system: HCC-2998 colon
786-0 renal = system: 786-0 renal
SR leukemia = system: SR leukemia
RPMI-8226 leukemia = system: RPMI-8226 leukemia
MCF7 breast = system: MCF7 breast
UACC-257 melanoma = system: UACC-257 melanoma
HOP-92 NSCLC = system: HOP-92 NSCLC
NCI-H23 lung = system: NCI-H23 lung
NCI-H522 lung = system: NCI-H522 lung
HS 578T breast = system: HS 578T breast
SW-620 colon = system: SW-620 colon
HOP-62 NSCLC = system: HOP-62 NSCLC
HL-60(TB) leukemia = system: HL-60(TB) leukemia
SF-268 CNS = system: SF-268 CNS
CAKI-1 renal = system: CAKI-1 renal
OVCAR-3 ovarian = system: OVCAR-3 ovarian
IGROV1 ovarian = system: IGROV1 ovarian
NCI-H226 lung = system: NCI-H226 lung
SK-MEL-5 melanoma = system: SK-MEL-5 melanoma
HCT-15 colon = system: HCT-15 colon
BT-549 breast = system: BT-549 breast

COC(=O)[C@]12CC[C@@H](C)[C@H](C)[C@@H]1C1=CC[C@@H]3[C@@]4(C)CC(=O)[C@H](O)[C@@]5(C)COC(=C45)C[C@@]3(C)[C@]1(C)CC2
GI50 (SF-539 CNS): 18.8 µM | TGI (SF-539 CNS): 37.2 µM | GI50 (K-562 leukemia): 20.5 µM | TGI (K-562 leukemia): 41.8 µM | GI50 (CCRF-CEM leukemia): 19.7 µM | TGI (CCRF-CEM leukemia): 43.5 µM | GI50 (HT29 colon): 19.2 µM | TGI (HT29 colon): 34.7 µM | GI50 (U251 CNS): 17.9 µM | TGI (U251 CNS): 31.9 µM | GI50 (A549 NSCLC): 23.9 µM | TGI (A549 NSCLC): 41.5 µM | GI50 (SNB-75 CNS): 16 µM | TGI (SNB-75 CNS): 33 µM | GI50 (MDA-MB-231 breast): 20.1 µM | TGI (MDA-MB-231 breast): 42.4 µM | GI50 (HCT-116 colon): 18.7 µM | TGI (HCT-116 colon): 34.3 µM | GI50 (DU-145 prostate): 18.7 µM | TGI (DU-145 prostate): 35.1 µM | GI50 (SF-295 CNS): 17.9 µM | TGI (SF-295 CNS): 33.7 µM | GI50 (NCI-H460 lung): 18.8 µM | TGI (NCI-H460 lung): 37.5 µM | GI50 (MDA-MB-435): 17 µM | TGI (MDA-MB-435): 32.5 µM | GI50 (UACC-62 melanoma): 15.7 µM | TGI (UACC-62 melanoma): 31.6 µM | GI50 (EKVX NSCLC): 17.4 µM | TGI (EKVX NSCLC): 34.2 µM | GI50 (M14 melanoma): 18.5 µM | TGI (M14 melanoma): 36.9 µM | GI50 (OVCAR-5 ovarian): 18.4 µM | TGI (OVCAR-5 ovarian): 37.7 µM | GI50 (ACHN renal): 18.3 µM | TGI (ACHN renal): 33.9 µM | GI50 (NCI/ADR-RES ovarian): 18.4 µM | TGI (NCI/ADR-RES ovarian): 37.6 µM | GI50 (T-47D breast): 18.4 µM | TGI (T-47D breast): 38.8 µM | GI50 (SNB-19 CNS): 19 µM | TGI (SNB-19 CNS): 42.1 µM | GI50 (KM12 colon): 17.7 µM | TGI (KM12 colon): 33.8 µM | GI50 (MOLT-4 leukemia): 18.7 µM | TGI (MOLT-4 leukemia): 39.1 µM | GI50 (SK-MEL-28 melanoma): 19.2 µM | TGI (SK-MEL-28 melanoma): 38.6 µM | GI50 (LOX IMVI melanoma): 17 µM | TGI (LOX IMVI melanoma): 31.1 µM | GI50 (SK-MEL-2 melanoma): 18.9 µM | TGI (SK-MEL-2 melanoma): 37.2 µM | GI50 (PC-3 prostate): 16.9 µM | TGI (PC-3 prostate): 33.8 µM | GI50 (A498 renal): 18.5 µM | TGI (A498 renal): 33.2 µM | GI50 (SK-OV-3 ovarian): 18.2 µM | TGI (SK-OV-3 ovarian): 32.8 µM | GI50 (MALME-3M melanoma): 16.2 µM | TGI (MALME-3M melanoma): 30.7 µM | GI50 (UO-31 renal): 16.9 µM | TGI (UO-31 renal): 32.8 µM | GI50 (RXF 393 renal): 15.2 µM | TGI (RXF 393 renal): 31.4 µM | GI50 (OVCAR-8 ovarian): 19.6 µM | TGI (OVCAR-8 ovarian): 39.2 µM | GI50 (SN12C renal): 19 µM | TGI (SN12C renal): 39.2 µM | GI50 (TK-10 renal): 20.4 µM | TGI (TK-10 renal): 38 µM | GI50 (OVCAR-4 ovarian): 17.1 µM | TGI (OVCAR-4 ovarian): 36 µM | GI50 (COLO 205 colon): 17.9 µM | TGI (COLO 205 colon): 33.5 µM | GI50 (HCC-2998 colon): 17.7 µM | TGI (HCC-2998 colon): 33.1 µM | GI50 (786-0 renal): 17.8 µM | TGI (786-0 renal): 34.2 µM | GI50 (SR leukemia): 20.4 µM | TGI (SR leukemia): 45.2 µM | GI50 (RPMI-8226 leukemia): 21 µM | TGI (RPMI-8226 leukemia): 45.7 µM | GI50 (MCF7 breast): 16.9 µM | TGI (MCF7 breast): 35.6 µM | GI50 (UACC-257 melanoma): 19.2 µM | TGI (UACC-257 melanoma): 33.4 µM | GI50 (HOP-92 NSCLC): 14.3 µM | TGI (HOP-92 NSCLC): 29.1 µM | GI50 (NCI-H23 lung): 17.5 µM | TGI (NCI-H23 lung): 35.7 µM | GI50 (NCI-H522 lung): 19.4 µM | TGI (NCI-H522 lung): 35.7 µM | GI50 (HS 578T breast): 18.4 µM | TGI (HS 578T breast): 45 µM | GI50 (SW-620 colon): 17.5 µM | TGI (SW-620 colon): 33.6 µM | GI50 (HOP-62 NSCLC): 16.9 µM | TGI (HOP-62 NSCLC): 31.1 µM | GI50 (HL-60(TB) leukemia): 19.5 µM | TGI (HL-60(TB) leukemia): 40.9 µM | GI50 (SF-268 CNS): 19.2 µM | TGI (SF-268 CNS): 37.8 µM | GI50 (CAKI-1 renal): 15.6 µM | TGI (CAKI-1 renal): 29.3 µM | GI50 (OVCAR-3 ovarian): 19 µM | TGI (OVCAR-3 ovarian): 34.8 µM | GI50 (IGROV1 ovarian): 19.3 µM | TGI (IGROV1 ovarian): 37.6 µM | GI50 (NCI-H226 lung): 17.7 µM | TGI (NCI-H226 lung): 38.7 µM | GI50 (SK-MEL-5 melanoma): 16.6 µM | TGI (SK-MEL-5 melanoma): 30.2 µM | GI50 (HCT-15 colon): 18 µM | TGI (HCT-15 colon): 33.4 µM | GI50 (BT-549 breast): 17.3 µM | TGI (BT-549 breast): 33.5 µM
